{"source": "patent US4803272A", "about": "(priority 1987, dated 1989)", "key": {"[1]": {"target": "T1, spermidine synthase (Homo sapiens, UniProt P19623)", "T1 sequence (P19623 1-302)": "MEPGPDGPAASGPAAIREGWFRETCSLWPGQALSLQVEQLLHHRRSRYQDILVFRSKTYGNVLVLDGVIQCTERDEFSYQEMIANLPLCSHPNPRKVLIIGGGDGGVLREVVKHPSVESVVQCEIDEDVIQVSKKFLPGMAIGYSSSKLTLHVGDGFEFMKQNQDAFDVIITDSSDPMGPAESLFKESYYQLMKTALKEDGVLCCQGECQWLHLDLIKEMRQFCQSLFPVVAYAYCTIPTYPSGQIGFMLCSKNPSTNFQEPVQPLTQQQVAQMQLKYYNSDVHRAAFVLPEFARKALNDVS", "experiment": "Spermidine synthase inhibiting activity", "format": "biochemical", "settings": "pH 8.2, 37°, 10 min, 20 μM decarboxylated S-adenosyl-L-methionine", "protocol": "Reactions were initiated by the addition of enzyme and incubated for 10 minues at 37° . The reactions were stopped by the additions of 5 μL of 100 mM spermidine and 5 μL of a slurry of 160 mg/mL of Darco G60 in water. The mixtures were centrifuged at 10,000×g for 2 minutes and a 40 μL aliquot of the supernate counted. Blank reactions were run using zero incubation time, or omitting enzyme or putrescine.\nThis assay made use of the adsorption of unreacted substrate, decarboxylated S-adenosyl-L-methionine, on charcoal while leaving the product polyamine in solution."}, "[2]": {"test_system": "human alpha [leucocyte] interferon", "settings": "mdbk cells"}, "[3]": {"test_system": "vesicular stomatitis virus [VSV], New Jersey strain", "format": "cell-based", "settings": "without interferon; Maden-Darby bovine kidney cells"}, "[4]": {"test_system": "B16 melanoma cells", "settings": "DFMO in combination with interferon; cited from earlier work"}, "[5]": {"test_system": "human beta interferon", "format": "cell-based"}, "[6]": {"test_system": "human gamma interferon", "format": "cell-based"}}, "note": "Structures can show the parent of a compound that is named as a salt."}
{"smiles": "NCCCCCC(CCN)SC[C@@H]1C[C@H](n2cnc3c(N)ncnc32)[C@@H](O)[C@H]1O", "note": "(relative stereo) [Example 3, 1,t-(9-adenyl)-2,c-3,c-dihydroxy-4,t-[2-thia-3-(2-aminoethyl)-8-aminooctyl]cyclopentane hydrochloride]", "values": [{"measurement": "IC50", "setting": "[1]", "value": 2, "unit": "µM"}, {"measurement": "potentiation of human alpha interferon", "setting": "[2]", "value": 2, "unit": "×"}, {"measurement": "antiviral activity of compound by itself against VSV", "setting": "[3]", "value": "no antiviral activity"}]}
{"smiles": "NCCC[C@](N)(C(=O)O)C(F)F", "note": "[DFMO, α-difluoromethyl ornithine]", "values": [{"measurement": "suppression of tumor growth of B16 melanoma cells", "setting": "[4]", "value": "total or near total suppression"}]}
{"smiles": "NCCCCCC(CCN)SCCOCn1cnc2c(N)ncnc21", "note": "(stereo not shown) [Example 1, 9-[2-oxa-5-thia-6-(2-aminoethyl)-11-aminoundecyl]-6-aminopurine]", "values": [{"measurement": "IC50", "setting": "[1]", "value": "~100", "unit": "µM"}, {"measurement": "potentiation of human beta interferon", "setting": "[5]", "value": 16, "unit": "×"}, {"measurement": "potentiation of human alpha [leucocyte] interferon", "setting": "[2]", "value": 2, "unit": "×"}, {"measurement": "potentiation of human alpha interferon", "setting": "[2]", "value": 8, "unit": "×"}, {"measurement": "potentiation of human gamma interferon", "setting": "[6]", "value": 4, "unit": "×"}, {"measurement": "antiviral activity of compound by itself against VSV", "setting": "[3]", "value": "no antiviral activity"}]}
